The values below come from the supplement of paper PMC10307832.

Common to all, as to assay: relative viability (nuclei count vs DMSO), 5 days (fraction); higher = more cells survive
Compound in the assay “Bexarotene + Palbociclib”: C=C(c1ccc(C(=O)O)cc1)c1cc2c(cc1C)C(C)(C)CCC2(C)C [Bexarotene] + CC(=O)c1c(C)c2cnc(Nc3ccc(N4CCNCC4)cn3)nc2n(C2CCCC2)c1=O [Palbociclib] (partner 0.5 µM)
The method in brief: (§1)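 Lung cancer cell lines were seeded in 1536-well plates and dosed by pin tool the next day, with either a single drug or a fixed anchor-drug dose combined with five library-drug doses (not always all listed) spaced in √10 steps. Five days later, one step fixed the cells and stained their nuclei (final 0.05% Triton X-100, 1% formaldehyde, 1 ug/ml Hoechst), and nuclei were counted on 4× images. Relative viability is the nuclei count in treated wells divided by the count in vehicle wells, and each value is the median of duplicate plates.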

Compound in the assay “Bexarotene + Bortezomib”: C=C(c1ccc(C(=O)O)cc1)c1cc2c(cc1C)C(C)(C)CCC2(C)C [Bexarotene] + CC(C)C[C@H](NC(=O)[C@H](Cc1ccccc1)NC(=O)c1cnccn1)B(O)O [Bortezomib] (partner 0.002 µM)
In short, it runs like this:
as §1

Compound in the assay “Bexarotene + Dasatinib”: C=C(c1ccc(C(=O)O)cc1)c1cc2c(cc1C)C(C)(C)CCC2(C)C [Bexarotene] + Cc1nc(Nc2ncc(C(=O)Nc3c(C)cccc3Cl)s2)cc(N2CCN(CCO)CC2)n1 [Dasatinib] (partner 0.075 µM)
In short, it runs like this:
as §1

Compound in the assay “Bexarotene + Alpelisib”: C=C(c1ccc(C(=O)O)cc1)c1cc2c(cc1C)C(C)(C)CCC2(C)C [Bexarotene] + Cc1nc(NC(=O)N2CCC[C@H]2C(N)=O)sc1-c1ccnc(C(C)(C)C(F)(F)F)c1 [Alpelisib] (partner 2 µM)
In short, it runs like this:
as §1

As to EPLC-272H, the relative viability with Bexarotene + Palbociclib (first compound 0.08 µM) stood at 0.313; with Bexarotene + Palbociclib (first compound 0.253 µM), 0.358; in the assay with Bexarotene + Palbociclib (first compound 0.8 µM) it was 0.312; in the assay with Bexarotene + Palbociclib (first compound 2.53 µM), 0.314; with Bexarotene + Palbociclib (first compound 8 µM) it was 0.354; with Bexarotene + Bortezomib (first compound 0.08 µM) it was 0.968. The relative viability was determined as 0.875 with Bexarotene + Bortezomib (first compound 0.253 µM); 0.538 with Bexarotene + Bortezomib (first compound 0.8 µM); 0.776 in the assay with Bexarotene + Bortezomib (first compound 2.53 µM); 0.822 with Bexarotene + Bortezomib (first compound 8 µM); 0.388 with Bexarotene + Dasatinib (first compound 0.08 µM); 0.312 with Bexarotene + Dasatinib (first compound 0.253 µM). Further, the relative viability with Bexarotene + Dasatinib (first compound 0.8 µM) stood at 0.369; with Bexarotene + Dasatinib (first compound 2.53 µM), 0.352; with Bexarotene + Dasatinib (first compound 8 µM) it was 0.383; with Bexarotene + Alpelisib (first compound 0.08 µM), 0.9; in the assay with Bexarotene + Alpelisib (first compound 0.253 µM), 0.97; with Bexarotene + Alpelisib (first compound 0.8 µM), 0.884. Also, the relative viability with Bexarotene + Alpelisib (first compound 2.53 µM) was 0.901; in the assay with Bexarotene + Alpelisib (first compound 8 µM), 0.911.

As to NCI-H2023, the relative viability is 0.312 in the assay with Bexarotene + Palbociclib (first compound 0.08 µM); 0.423 with Bexarotene + Palbociclib (first compound 0.253 µM); 0.4 in the assay with Bexarotene + Palbociclib (first compound 0.8 µM); 0.359 in the assay with Bexarotene + Palbociclib (first compound 2.53 µM); 0.269 in the assay with Bexarotene + Palbociclib (first compound 8 µM); 1.08 with Bexarotene + Bortezomib (first compound 0.08 µM). Also, the relative viability was determined as 1.01 in the assay with Bexarotene + Bortezomib (first compound 0.253 µM); 1.07 with Bexarotene + Bortezomib (first compound 0.8 µM); 0.846 with Bexarotene + Bortezomib (first compound 2.53 µM); 0.786 in the assay with Bexarotene + Bortezomib (first compound 8 µM); 0.628 in the assay with Bexarotene + Dasatinib (first compound 0.08 µM); 0.64 in the assay with Bexarotene + Dasatinib (first compound 0.253 µM). Further, the relative viability in the assay with Bexarotene + Dasatinib (first compound 0.8 µM) was 0.561; with Bexarotene + Dasatinib (first compound 2.53 µM), 0.522; with Bexarotene + Dasatinib (first compound 8 µM), 0.5; with Bexarotene + Alpelisib (first compound 0.08 µM), 0.622; in the assay with Bexarotene + Alpelisib (first compound 0.253 µM), 0.618; with Bexarotene + Alpelisib (first compound 0.8 µM), 0.615. Further, the relative viability with Bexarotene + Alpelisib (first compound 2.53 µM) is 0.548; with Bexarotene + Alpelisib (first compound 8 µM) it was 0.57.

BEN: the relative viability came to 0.444 in the assay with Bexarotene + Palbociclib (first compound 0.08 µM); 0.467 in the assay with Bexarotene + Palbociclib (first compound 0.253 µM); 0.442 in the assay with Bexarotene + Palbociclib (first compound 0.8 µM); 0.456 with Bexarotene + Palbociclib (first compound 2.53 µM); 0.502 with Bexarotene + Palbociclib (first compound 8 µM); 0.905 with Bexarotene + Bortezomib (first compound 0.08 µM). The relative viability in the assay with Bexarotene + Bortezomib (first compound 0.253 µM) is 0.599; with Bexarotene + Bortezomib (first compound 0.8 µM), 0.672; with Bexarotene + Bortezomib (first compound 2.53 µM), 0.496; in the assay with Bexarotene + Bortezomib (first compound 8 µM), 0.649; with Bexarotene + Dasatinib (first compound 0.08 µM) it was 0.295; with Bexarotene + Dasatinib (first compound 0.253 µM), 0.3. Besides, the relative viability with Bexarotene + Dasatinib (first compound 0.8 µM) came to 0.326; with Bexarotene + Dasatinib (first compound 2.53 µM) it was 0.271; in the assay with Bexarotene + Dasatinib (first compound 8 µM), 0.278; with Bexarotene + Alpelisib (first compound 0.08 µM), 1.03; with Bexarotene + Alpelisib (first compound 0.253 µM) it was 0.962; in the assay with Bexarotene + Alpelisib (first compound 0.8 µM), 0.898. For the same cell line, the relative viability was found to be 0.836 with Bexarotene + Alpelisib (first compound 2.53 µM) and 0.893 with Bexarotene + Alpelisib (first compound 8 µM).

COR-L 105: the relative viability was found to be 0.382 with Bexarotene + Palbociclib (first compound 0.08 µM); 0.368 with Bexarotene + Palbociclib (first compound 0.253 µM); 0.409 with Bexarotene + Palbociclib (first compound 0.8 µM); 0.421 in the assay with Bexarotene + Palbociclib (first compound 2.53 µM); 0.392 with Bexarotene + Palbociclib (first compound 8 µM); 0.98 with Bexarotene + Bortezomib (first compound 0.08 µM). For the same cell line, the relative viability in the assay with Bexarotene + Bortezomib (first compound 0.253 µM) amounted to 0.98; with Bexarotene + Bortezomib (first compound 0.8 µM), 0.988; in the assay with Bexarotene + Bortezomib (first compound 2.53 µM), 0.965; with Bexarotene + Bortezomib (first compound 8 µM), 0.909; with Bexarotene + Dasatinib (first compound 0.08 µM) it was 0.456; with Bexarotene + Dasatinib (first compound 0.253 µM) it was 0.363. The relative viability came to 0.354 with Bexarotene + Dasatinib (first compound 0.8 µM); 0.333 in the assay with Bexarotene + Dasatinib (first compound 2.53 µM); 0.495 with Bexarotene + Dasatinib (first compound 8 µM); 0.928 with Bexarotene + Alpelisib (first compound 0.08 µM); 0.977 with Bexarotene + Alpelisib (first compound 0.253 µM); 1.04 in the assay with Bexarotene + Alpelisib (first compound 0.8 µM). The relative viability in the assay with Bexarotene + Alpelisib (first compound 2.53 µM) was found to be 1.14; with Bexarotene + Alpelisib (first compound 8 µM) it was 0.916.
